Data on two compounds can be found in patent US20230135524A1, “ARYL HYDANTOIN HETEROCYCLES AND METHODS OF USE” (The United States of America,as represented by the …, priority 2020, published 2023).

One assay concerns LNCaP. The assay can be described thus: IncuCyte % confluence cell growth inhibition, LNCaP. It counts as cell-based. The following applies: Homo sapiens, read-out: IC50 values (μM), LNCaP. How it is done: (§1) Images were then analyzed to discern the % confluence of cells in each well. IC50 values were calculated from dose response curves of the % cell growth inhibition relative to DMSO control at the same time point per each cell line.

A further assay addresses T1, AR (Homo sapiens, UniProt P10275).
T1 construct: host or cells: HEK 293T
T1 sequence (P10275 1-920): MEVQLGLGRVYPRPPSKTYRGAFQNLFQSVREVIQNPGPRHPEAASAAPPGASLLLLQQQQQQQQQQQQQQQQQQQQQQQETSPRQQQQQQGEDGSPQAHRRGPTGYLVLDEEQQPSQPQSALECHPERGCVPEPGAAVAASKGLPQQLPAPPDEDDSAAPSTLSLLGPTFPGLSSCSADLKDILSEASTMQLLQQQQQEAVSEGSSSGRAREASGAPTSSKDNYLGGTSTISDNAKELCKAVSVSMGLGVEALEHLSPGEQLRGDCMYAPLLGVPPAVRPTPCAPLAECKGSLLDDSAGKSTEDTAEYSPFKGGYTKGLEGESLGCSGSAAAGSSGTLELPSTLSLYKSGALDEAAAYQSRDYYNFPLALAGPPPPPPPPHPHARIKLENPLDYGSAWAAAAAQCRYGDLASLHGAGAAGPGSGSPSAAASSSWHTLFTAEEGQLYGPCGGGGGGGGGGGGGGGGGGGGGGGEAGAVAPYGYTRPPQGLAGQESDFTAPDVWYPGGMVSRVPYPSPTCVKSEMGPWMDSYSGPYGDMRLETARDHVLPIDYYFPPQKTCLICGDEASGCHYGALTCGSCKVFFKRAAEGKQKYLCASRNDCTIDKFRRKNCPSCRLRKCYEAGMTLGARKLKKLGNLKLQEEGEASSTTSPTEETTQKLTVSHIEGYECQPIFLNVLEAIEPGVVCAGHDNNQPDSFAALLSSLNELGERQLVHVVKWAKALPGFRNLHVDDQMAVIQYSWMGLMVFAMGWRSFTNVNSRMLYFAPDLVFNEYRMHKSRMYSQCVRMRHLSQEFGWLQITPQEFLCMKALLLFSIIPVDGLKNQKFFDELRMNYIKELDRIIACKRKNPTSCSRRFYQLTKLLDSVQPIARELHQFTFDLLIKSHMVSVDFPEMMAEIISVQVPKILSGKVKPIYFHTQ
Description: AR transcriptional output, ARE-luciferase assay in HEK 293T cells. It counts as cell-based. How it is done: 100% is set to the activity with 200 μM testosterone, and 0% is set to the basal level (no ligand).
Cells were maintained in steroid free media, and stimulated with 200 μM testosterone, followed immediately by administration of exemplary compounds (Table 1, below). RLU is relative luciferase units, relative to DMSO control with 200 μM testosterone alone. Data represent an average of 3 independent experiments performed in triplicate wells per compounds at 10 μM.
Cells were maintained in steroid-free media, and stimulated with 200 μM testosterone, followed immediately by administration of a test compound. […] Compounds were dosed at 10 μM in FIGS. 6A and 6B.
Cells were maintained in steroid-free media, and stimulated with 200 μM testosterone, followed immediately by administration of a test compound.

For the next assay, the system named is LNCAP AR. Description: IncuCyte % confluence cell growth inhibition, LNCAP AR. The assay is classed as cell-based. The following applies: read-out: IC50 values (μM), LNCAP AR. How it is done: as §1
The next assay deals with 22Rv1. The assay can be described thus: IncuCyte % confluence cell growth inhibition, 22Rv1. It counts as cell-based. To be noted: Homo sapiens, 22Rv1, read-out: IC50 values (μM), 22Rv1. As to the method: as §1
For a further assay, the target named is T2, Androgen Receptor (UniProt P10275).
T2 sequence (P10275 1-920): T1 sequence (P10275 1-920)
Description: Radioligand competition binding, [3H] methyltrienolone. The following applies: competition with 0.5 nM [3H] methyltrienolone. How it is done:
(§2) Binding assays were performed via competition with radioactive ligands across a range of dose of compounds 15a and 19d. For aldosterone binding, the aldosterone receptor was incubated for 20 hours with […] aldosterone. Similarly, the androgen receptor was co-incubated with 0.5 nM of [^3H] methyltrienolone, the estrogen receptor alpha was co-incubated with 0.5 nM [^3H] estradiol, the glucocorticoid receptor with 0.5 nM [^3H] dexamethasone, and the progesterone receptor with 0.5 nM [^3H] progesterone as parent ligands.
In general terms: In a radioligand displacement assay an active substance lowers the binding of a labelled ligand.

For a further assay, the system named is DU145. The assay can be described thus: IncuCyte % confluence cell growth inhibition, DU145. The following applies: Homo sapiens, DU-145, read-out: IC50 values (μM), DU145. The assay is classed as cell-based. How it is done: as §1
Another assay concerns the target Estrogen Receptor alpha (Homo sapiens, UniProt P03372). Description: Radioligand competition binding, [3H] estradiol. The following applies: competition with 0.5 nM [3H] estradiol. How it is done:
as §2

The next assay concerns PC3. The assay can be described thus: IncuCyte % confluence cell growth inhibition, PC3. The assay is classed as cell-based. The following applies: Homo sapiens, PC-3, read-out: IC50 values (μM), PC3. How it is done: as §1
In another assay the target is T3, Glucocorticoid Receptor (Homo sapiens, UniProt P04150).
T3 sequence (P04150 1-777): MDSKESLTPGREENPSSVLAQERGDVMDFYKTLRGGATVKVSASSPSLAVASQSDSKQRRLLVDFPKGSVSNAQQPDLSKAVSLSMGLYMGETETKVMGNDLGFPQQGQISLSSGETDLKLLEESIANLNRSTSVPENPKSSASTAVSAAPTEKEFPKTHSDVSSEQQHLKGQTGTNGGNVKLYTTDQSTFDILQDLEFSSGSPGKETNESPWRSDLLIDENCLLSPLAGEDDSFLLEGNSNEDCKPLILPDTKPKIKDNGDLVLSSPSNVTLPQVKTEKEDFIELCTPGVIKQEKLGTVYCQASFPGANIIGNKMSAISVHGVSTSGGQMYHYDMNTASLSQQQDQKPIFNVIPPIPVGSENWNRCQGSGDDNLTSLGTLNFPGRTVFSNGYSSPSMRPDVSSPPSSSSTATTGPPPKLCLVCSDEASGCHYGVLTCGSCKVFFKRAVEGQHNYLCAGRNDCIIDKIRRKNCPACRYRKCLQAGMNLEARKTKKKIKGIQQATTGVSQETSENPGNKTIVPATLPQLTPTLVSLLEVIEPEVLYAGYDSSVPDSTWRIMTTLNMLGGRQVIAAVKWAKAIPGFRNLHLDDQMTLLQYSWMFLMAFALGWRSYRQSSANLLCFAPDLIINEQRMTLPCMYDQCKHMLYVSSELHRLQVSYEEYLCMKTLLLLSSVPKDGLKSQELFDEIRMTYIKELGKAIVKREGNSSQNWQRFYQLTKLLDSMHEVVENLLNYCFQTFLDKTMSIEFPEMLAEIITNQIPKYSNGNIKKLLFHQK
Description: Radioligand competition binding, [3H] dexamethasone. To be noted: competition with 0.5 nM [3H] dexamethasone. How it is done: as §2

Sequence of Estrogen Receptor alpha (P03372 whole entry): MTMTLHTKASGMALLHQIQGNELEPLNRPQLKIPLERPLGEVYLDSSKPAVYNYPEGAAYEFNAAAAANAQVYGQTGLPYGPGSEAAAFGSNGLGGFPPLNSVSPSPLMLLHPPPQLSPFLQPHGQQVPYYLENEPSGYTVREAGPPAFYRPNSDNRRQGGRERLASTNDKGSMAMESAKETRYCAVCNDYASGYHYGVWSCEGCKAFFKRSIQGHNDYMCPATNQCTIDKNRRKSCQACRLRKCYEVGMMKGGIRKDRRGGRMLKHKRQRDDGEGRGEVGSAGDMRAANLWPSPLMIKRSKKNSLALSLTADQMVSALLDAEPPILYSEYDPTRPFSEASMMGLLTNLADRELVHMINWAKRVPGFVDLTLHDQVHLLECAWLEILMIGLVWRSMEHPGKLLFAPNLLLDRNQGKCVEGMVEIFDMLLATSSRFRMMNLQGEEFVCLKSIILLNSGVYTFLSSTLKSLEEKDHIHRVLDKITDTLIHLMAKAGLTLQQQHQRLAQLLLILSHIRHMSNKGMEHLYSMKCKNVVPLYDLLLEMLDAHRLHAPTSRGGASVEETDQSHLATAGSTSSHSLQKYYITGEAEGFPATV

For the compound `CC1(C)C(=O)N(c2ccc(C#N)c(C(F)(F)F)c2)C(=S)N1Cc1ccc(-c2c[nH]nn2)cc1` [Compound 15a, 4-(3-(4-(1H-1,2,3-triazol-4-yl)benzyl)-4,4-dimethyl-5-oxo-2-thioxoimidazolidin-1-yl)-2-(trifluoromethyl)benzonitrile], the IC50 (commonly the point on the concentration scale where inhibition reaches its midpoint) is 30.5 µM in the assay with LNCaP; 17 µM in the assay with LNCAP AR; 18.3 µM in the assay on 22Rv1; 12.5 nM on Androgen Receptor; 37.3 µM in the assay on DU145; > 10000 nM at Estrogen Receptor alpha. Also, the figures for the IC50 in the assay on PC3 and at Glucocorticoid Receptor were 59.8 µM and > 10000 nM, respectively. For the same compound, the “antagonist or inverse agonist activity on AR transcriptional activity (in words)” value on AR (10 μM, HEK 293T, FIG. 6A) is “reduced the transcriptional activity of the AR well below the expression in the absence of any steroids or ligands”. Further, the activity at 10 µM at AR (HEK-293T, read-out: AR antagonist activity (% RLU)) is -109%.
Take `CC1(C)C(=O)N(c2ccc(C#N)c(C(F)(F)F)c2)C(=S)N1Cc1ccc(-c2c[nH]nn2)cc1F` [Compound 19d, 4-(3-(2-Fluoro-4-(1H-1,2,3-triazol-4-yl)benzyl)-4,4-dimethyl-5-oxo-2-thioxoimidazolidin-1-yl)-2-(trifluoromethyl)benzonitrile]: the IC50 was 35.7 µM in the assay on LNCaP; 28.2 µM in the assay on LNCAP AR; 26.9 µM in the assay with 22Rv1; 9.3 nM at Androgen Receptor; 53.6 µM in the assay with DU145; > 10000 nM on Estrogen Receptor alpha. Besides, the results for the IC50 in the assay on PC3 and on Glucocorticoid Receptor were 44.8 µM and > 10000 nM, respectively.
